Data taken from the supplement of paper PMC10307832.

What was measured:
Experiment in all cases: relative viability (nuclei count vs DMSO), 5 days (fraction); higher = more cells survive
[1] = compound: C1/C(=C\C2=CC=CS2)/C(=O)/C(=C/C3=CC=CS3)/C1
In short: (§1)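 Viability was defined as treated-well nuclei divided by vehicle-well nuclei, with the median taken over replicate plates. Cells from lung cancer lines sat overnight at 37 °C in 1536-well plates, received five √10-spaced library-drug doses by pinning on vehicle-anchored plates, and grew 5 days without medium change before one-step fixation, permeabilisation and Hoechst staining, 4× imaging and MetaXpress nuclear counts. Only plates with control CV under 25% and at least one doubling were kept.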

TPCA-1 = compound: C1=CC(=CC=C1C2=CC(=C(S2)NC(=O)N)C(=O)N)F [TPCA-1]
In short: as §1

Lestaurtinib = compound: C[C@]12O[C@H](C[C@]1(O)CO)n1c3ccccc3c3c4c(c5c6ccccc6n2c5c31)CNC4=O [Lestaurtinib]
In short: as §1

Row | Cell Line | relative viability ([1]; 0.2 µM) | relative viability ([1]; 0.6325 µM) | relative viability ([1]; 2 µM) | relative viability ([1]; 6.325 µM) | relative viability ([1]; 20 µM) | relative viability (TPCA-1; 0.04 µM) | relative viability (TPCA-1; 0.1265 µM) | relative viability (TPCA-1; 0.4 µM) | relative viability (TPCA-1; 1.265 µM) | relative viability (TPCA-1; 4 µM) | relative viability (Lestaurtinib; 0.005 µM) | relative viability (Lestaurtinib; 0.01581 µM) | relative viability (Lestaurtinib; 0.05 µM) | relative viability (Lestaurtinib; 0.1581 µM) | relative viability (Lestaurtinib; 0.5 µM)
1 | 201T | 1.01 | 0.963 | 1.06 | 0.935 | 0.935 | 1.02 | 0.951 | 1 | 1.01 | 0.835 | 1.04 | 1.08 | 0.928 | 1.04 | 0.678
2 | A549 | 0.987 | 0.983 | 1.01 | 0.772 | 0.931 | 1.05 | 0.956 | 0.955 | 0.871 | 0.782 | 1.04 | 1 | 0.791 | 0.521 | 0.162
3 | A-427 | 1.03 | 1.05 | 1.05 | 0.954 | 1.01 | 1.1 | 0.94 | 1.11 | 0.89 | 0.312 | 1.05 | 1.13 | 0.792 | 0.435 | 0.199
4 | ABC-1 | 0.87 | 1.03 | 1.13 | 0.842 | 0.888 | 1.02 | 0.798 | 0.982 | 0.771 | 0.638 | 0.976 | 1.01 | 0.79 | 0.735 | 0.327
5 | BEN | 0.935 | 1 | 1.11 | 0.848 | 0.934 | 1.01 | 0.873 | 1.05 | 1.08 | 0.774 | 0.993 | 1.11 | 0.888 | 0.8 | 0.278
6 | CAL-12T | 1.04 | 1.07 | 0.978 | 0.859 | 0.994 | 0.989 | 0.925 | 1.05 | 0.86 | 0.468 | 0.962 | 1.17 | 0.968 | 0.788 | 0.61
7 | COR-L23 | 1.03 | 1.05 | 1 | 0.865 | 0.947 | 1.03 | 0.924 | 0.968 | 0.986 | 0.857 | 1.08 | 1.13 | 0.633 | 0.829 | 0.166
8 | COR-L 105 | 0.989 | 0.895 | 0.956 | 0.71 | 0.836 | 1 | 0.9 | 0.99 | 0.806 | 0.615 | 0.897 | 0.978 | 0.808 | 0.572 | 0.313
9 | Calu-6 | 1.06 | 1.05 | 0.993 | 0.944 | 0.985 | 1.06 | 0.95 | 0.982 | 1 | 0.72 | 1.05 | 0.999 | 0.621 | 0.518 | 0.204
10 | ChaGo-K-1 | 0.997 | 1.02 | 1.02 | 0.787 | 0.535 | 1.09 | 0.927 | 0.965 | 0.925 | 0.637 | 1 | 1.08 | 0.906 | 1.01 | 0.437
11 | EBC-1 | 1.08 | 1.07 | 1.01 | 0.888 | 0.972 | 1.15 | 0.975 | 0.991 | 0.973 | 0.988 | 1.04 | 1.15 | 0.818 | 0.756 | 0.428
